Data published in US7235534B2, “Antisense strategy to modulate estrogen receptor response (ER α and/or ER β )” (Institut de Cardiologie de Montreal, priority 2001, dated 2007).

Test system: p42/44 MAPK
Assay: Western blot of p42/44 MAPK phosphorylation in PAEC
Type: cell-based, porcine
Details: for decrease of p42/44 MAPK phosphorylation induced by 5 min stimulation of 17βE: antagonist 10^−7M 5 min prior to 17βE 10^−8M
Method: Confluent PAEC and PSMC were starved for 7 hours in DMEM and antibiotics. Culture medium was removed, and cells were rinsed twice with ice-cold DMEM. PSMC were incubated on ice in DMEM with or without 17βE (10^−8M) for 30 min, incubated at 37° C. for 5, 10, 15 and 30 min, then brought back on ice. Cell were then rinsed with cold DMEM, incubated on ice in DMEM, bovine serum albumin (1 mg/ml), PDGF-BB (10 ng/ml) for 30 min, incubated at 37° C. for 5 min, and then brought back on ice. […] […] Total proteins were prepared by the addition of 500 μl of lysis buffer containing phenylmethylsulfonyl fluoride 1 mM, leupeptin 10 μg/ml, aprotinin 30 μg/ml, and NaVO3 1 mM (Sigma). Plates were incubated at 4° C. for 30 min and scraped, and the protein concentration was determined with a Bio-Rad protein kit (Bio-Rad, Hercules, Calif.). Same protein quantity for each cell type and condition were dissolved in Laemmli's buffer, boiled for 5 min in reducing conditions, separated by a 10% gradient SDS-PAGE (Protean II kit; Bio-Rad), and transblotted onto a 0.45-μm polyvinylidene difluoride membranes (Millipore Corp., Bedford, Mass.). The membranes were blocked in 5% Blotto-TTBS (5% nonfat dry milk; Bio-Rad), 0.05% Tween 20, 0.15 M NaCl, 25 mM Tris-HCl, pH 7.5) for 1 h at room temperature with gentle agitation and incubated overnight at 4° C. in 0.5% Blotto-TTBS with the addition of an anti-phospho p42/44 MAPK or an anti-phospho p38 MAPK rabbit polyclonal antiserums (α-pp42/44; dilution of 1:10 000, and α-pp38; dilution 1:5000, New England BioLabs, Beverly, Mass.). Membranes were washed with TTBS, and incubated at room temperature with an anti-rabbit IgG antibody coupled to horseradish peroxidase (dilution 1:10 000–1:20 000, Santa Cruz Biotechnology, Santa Cruz, Calif.) in 0.5% Blotto-TTBS for 30 min. […] Kaleidoscope molecular weight and SDS-plyacrylamide gel electrophoresis broad range marker proteins (Bio-Rad) were used as standards for SDS-plyacrylamide gel electrophoresis. Digital image densitometry (PDI Bioscience, Aurora, ON) was performed on x-ray film to determine relative percentages of p42/44 and p38 MAPK phosphorylation.
Confluent PAEC and PSMC were preteated with or without antisense sequences as described above for Western Blot analysis. Cells were rinsed twice with ice-cold DMEM. PSMC and PAEC were stimulated with or without 17βE (10^−8 mol/L) as previously described (Geraldes P). Briefly, PSMC were incubated on ice in DMEM with or without 17βE (10^−8 mol/L) for 30 minutes, incubated at 37° C. for 30 minutes, then brought back on ice. Cells were then rinsed with cold DMEM, incubated on ice in DMEM, bovine serum albumin (1 mg/mL), PDGF-BB (10 ng/mL) for 30 minutes, incubated at 37° C. for 5 and 30 minutes, and then brought back on ice. PAEC were incubated on ice in DMEM with or without 17βE (10^−8 mol/L) for 30 minutes, then incubated at 37° C. for 5 and 30 minutes and brought back on ice. Total proteins were prepared-by the addition of 500 μL of lysis buffer, incubated at 4° C. for 30 minutes and scraped to collect the proteins. Same quantity of protein was separated by a 10% gradient SDS-PAGE (Protean II kit; Bio-Rad), and transblotted onto a 0.45-μm polyvinylidene difluoride membranes (Millipore Corp.). The membranes were blocked for 1 hour at room temperature with gentle agitation and incubated overnight at 4° C. in 0.5% Blotto-TTBS with the addition of an antiphospho p42/44 MAPK or an antiphospho p38 MAPK rabbit polyclonal antiserums (α-pp42/44; dilution of 1:10000, and α-pp38; dilution 1:5 000, New England BioLabs, Beverly, Mass.). Membranes were washed with TTBS, and incubated at room temperature with an anti-rabbit IgG antibody coupled to horseradish peroxidase (dilution 1:10 000–1:20 000, Santa Cruz Biotechnology) in 0.5% Blotto-TTBS for 30 minutes. […] Digital image densitometry (PDI Bioscience) was performed on X-ray film to determine relative phosphorylation of p42/44 and p38 MAPK. […]

Q: With `CC/C(=C(\c1ccccc1)c1ccc(OCCN(C)C)cc1)c1ccccc1` [Tam, Tamoxifen] as the molecule, how does the “decrease of p42/44 MAPK phosphorylation induced by 5 min stimulation of 17βE” value (shortened to “decrease”) read?
A: Its value is 36%.

Q: For `CC/C(=C(\c1ccc(O)cc1)c1ccc(OCCN(C)C)cc1)c1ccccc1` [4-OHT, 4-OH-Tamoxifen], which “decrease” value is on record?
A: Its value is 44%.

Q: What does the source list for `C[C@]12CC[C@@H]3c4ccc(O)cc4CC[C@H]3[C@@H]1CC[C@@H]2O` [17βE, 17-beta-estradiol]?
A: increase of p42/44 MAPK phosphorylation (17βE 10^−8M, 5 minutes, Example 1): 1122%; increase of p42/44 MAPK phosphorylation (17βE 10^−8M, 10 minutes): 1074%; increase of p42/44 MAPK phosphorylation (17βE 10^−8M, 15 minutes): 1420%; increase of p42/44 MAPK phosphorylation (17βE 10^−8M, 30 minutes): 1835%; increase of p42/44 MAPK phosphorylation (17βE 10^−8 mol/L, 5 minutes, Example 2): 329%

Q: How did the “decrease” value turn out when `O=C(c1ccc(OCN2CCCCC2)cc1)c1c(-c2ccc(O)cc2)sc2cc(O)ccc12` [Ral, Raloxifen] was run?
A: Its value is 66%.
